Measurements: patent publication US9376425B2, “Heterocyclic compounds as MDM2 inhibitors for the treatment of cancer” (AMGEN INC., priority 2011, dated 2016)

Molecular target: T1, human MDM2 (GST-hMDM2 1-188), interaction with biotinylated-p53 (1-83) (Homo sapiens, UniProt Q00987)
T1 construct: Amino acid residues 1-188 of human MDM2 were expressed; made in house; host or cells: Escherichia coli
Assay: improved HTRF assay (HTRF2 assay), inhibition of HDM2-p53 interaction
Type: binding
Conditions: 0.2 nM GST-hMDM2, 0.5 nM biotinylated-p53, 100 mM KF
Method in brief: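 GST-hMDM2 preincubated 20 min at RT with serially diluted compound, then biotinylated p53 (1-83, E. coli) added for 60 min. Detection with SA-XLent, anti-GST cryptate and KF, equilibrated >4 h; final DMSO 2%. TR-FRET read; % inhibition calculated relative to nutlin-3.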

T1 sequence (Q00987 1-188): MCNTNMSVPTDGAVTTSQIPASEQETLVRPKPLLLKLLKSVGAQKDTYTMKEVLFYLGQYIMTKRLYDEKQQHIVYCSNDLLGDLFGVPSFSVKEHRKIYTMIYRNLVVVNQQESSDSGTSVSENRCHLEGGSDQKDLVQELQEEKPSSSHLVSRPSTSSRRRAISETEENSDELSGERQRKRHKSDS

Row | SMILES | IC50
1 | NC(=O)C[C@H]1O[C@H](c2cccc(Cl)c2)[C@@H](c2ccc(Cl)cc2)N([C@H](CN(c2ccccc2F)S(=O)(=O)C2CC2)C2CC2)C1=O (single isomer, unassigned) [Example 257, 2-((2R,5R,6R)-6-(3-chlorophenyl)-5-(4-chlorophenyl)-4-((S)-1-cyclopropyl-2-(N-(2-fluorophenyl)cyclopropanesulfonamido)ethyl)-3-oxomorpholin-2-yl)acetamide or 2-((2S,5R,6R)-6-(3-chlorophenyl)-5-(4-chlorophenyl)-4-((S)-1-cyclopropyl-2-(N-(2-fluorophenyl)cyclopropanesulfonamido)ethyl)-3-oxomorpholin-2-yl)acetamide] | < 0.001 µM
2 | CC(C)[C@@H](CS(=O)(=O)C(C)(C)C)N1C(=O)[C@@H](CC(=O)O)O[C@H](c2cccc(Cl)c2)[C@H]1c1ccc(Cl)c(F)c1 (single isomer, unassigned) [Example 311] | 0.005 µM
3 | CC[C@@H](CS(=O)(=O)C(C)(C)C)N1C(=O)[C@@H](CC(=O)O)O[C@H](c2cc(Cl)cc(Cl)c2)[C@H]1c1ccc(Cl)cc1 (single isomer, unassigned) [Example 148, 2-((2R,5R,6R)-5-(4-chlorophenyl)-6-(3,5-dichlorophenyl)-4-((S)-1-(tert-butylsulfonyl)butan-2-yl)-3-oxomorpholin-2-yl)acetic acid or 2-((2S,5R,6R)-5-(4-chlorophenyl)-6-(3,5-dichlorophenyl)-4-((S)-1-(tert-butylsulfonyl)butan-2-yl)-3-oxomorpholin-2-yl)acetic acid] | 0.007 µM
4 | CC(C)(C)S(=O)(=O)C[C@H](CC(F)(F)F)N1C(=O)[C@@](C)(CC(=O)O)O[C@H](c2cccc(Cl)c2)[C@H]1c1ccc(Cl)cc1 (single isomer, unassigned) [Example 341, 2-((2R,5R,6R)-4-((S)-1-(tert-Butylsulfonyl)-4,4,4-trifluorobutan-2-yl)-6-(3-chlorophenyl)-5-(4-chlorophenyl)-2-methyl-3-oxomorpholin-2-yl)acetic acid or 2-((2S,5R,6R)-4-((S)-1-(tert-butylsulfonyl)-4,4,4-trifluorobutan-2-yl)-6-(3-chlorophenyl)-5-(4-chlorophenyl)-2-methyl-3-oxomorpholin-2-yl)acetic acid] | < 0.001 µM
5 | O=C(O)C[C@H]1O[C@H](c2cccc(Cl)c2)[C@@H](c2ccc(Cl)cc2)N([C@H](CS(=O)(=O)N2CCc3cc(F)ccc32)C2CC2)C1=O (single isomer, unassigned) [Example 299, 2-((2R,5R,6R)-6-(3-Chlorophenyl)-5-(4-chlorophenyl)-4-((S)-1-cyclopropyl-2-((5-fluoroindolin-1-yl)sulfonyl)ethyl)-3-oxomorpholin-2-yl)acetic acid or 2-((2S,5R,6R)-6-(3-chlorophenyl)-5-(4-chlorophenyl)-4-((S)-1-cyclopropyl-2-((5-fluoroindolin-1-yl)sulfonyl)ethyl)-3-oxomorpholin-2-yl)acetic acid] | 0.011 µM
6 | CC[C@@H](CS(=O)(=O)C(C)(C)C)N1C(=O)[C@@H](CC(=O)O)O[C@H](c2cccc(Cl)c2)[C@@]1(C)c1ccc(Cl)cc1 (single isomer, unassigned) [Example 163, 2-((2R,5R,6R)-4-((S)-1-(tert-butylsulfonyl)butan-2-yl)-6-(3-chlorophenyl)-5-(4-chlorophenyl)-5-methyl-3-oxomorpholin-2-yl)acetic acid or 2-((2S,5R,6R)-4-((S)-1-(tert-butylsulfonyl)butan-2-yl)-6-(3-chlorophenyl)-5-(4-chlorophenyl)-5-methyl-3-oxomorpholin-2-yl)acetic acid] | 6.62 µM
7 | NC(=O)C[C@H]1O[C@H](c2cccc(Cl)c2)[C@@H](c2ccc(Cl)cc2)N([C@H](CN(c2c(F)cccc2F)S(=O)(=O)C2CC2)C2CC2)C1=O (single isomer, unassigned) [Example 359, 2-((2R,5R,6R)-6-(3-Chlorophenyl)-5-(4-chlorophenyl)-4-((S)-1-cyclopropyl-2-(N-(2,6-difluorophenyl)cyclopropanesulfonamido)ethyl)-3-oxomorpholin-2-yl)acetamide or 2-((2S,5R,6R)-6-(3-chlorophenyl)-5-(4-chlorophenyl)-4-((S)-1-cyclopropyl-2-(N-(2,6-difluorophenyl)cyclopropanesulfonamido)ethyl)-3-oxomorpholin-2-yl)acetamide] | < 0.001 µM
8 | CC[C@@H](CS(=O)(=O)C(C)(C)C)N1C(=O)[C@@H](CC(=O)CO)O[C@H](c2cccc(Cl)c2)[C@H]1c1ccc(Cl)cc1 (single isomer, unassigned) [Example 245, (2R,5R,6R)-4-((S)-1-(tert-butylsulfonyl)butan-2-yl)-6-(3-chlorophenyl)-5-(4-chlorophenyl)-2-(3-hydroxy-2-oxopropyl)morpholin-3-one or (2S,5R,6R)-4-((S)-1-(tert-butylsulfonyl)butan-2-yl)-6-(3-chlorophenyl)-5-(4-chlorophenyl)-2-(3-hydroxy-2-oxopropyl)morpholin-3-one] | 0.009 µM
9 | CC[C@@H](CS(=O)(=O)C(C)(C)C)N1C(=O)[C@@H](CNC(=O)N(CC)CC)O[C@H](c2cccc(Cl)c2)[C@H]1c1ccc(Cl)cc1 (single isomer, unassigned) [Example 376, 3-(((2R,5R,6R)-4-((S)-1-(tert-Butylsulfonyl)butan-2-yl)-6-(3-chlorophenyl)-5-(4-chlorophenyl)-3-oxomorpholin-2-yl)methyl)-1,1-diethylurea or 3-(((2S,5R,6R)-4-((S)-1-(tert-butylsulfonyl)butan-2-yl)-6-(3-chlorophenyl)-5-(4-chlorophenyl)-3-oxomorpholin-2-yl)methyl)-1,1-diethylurea] | 0.048 µM
10 | CC(C)[C@H](CN(c1ccccc1)S(=O)(=O)C1CC1)N1C(=O)[C@@H](CC(=O)O)O[C@H](c2cccc(Cl)c2)[C@H]1c1ccc(Cl)cc1 (single isomer, unassigned) [Example 193, 2-((2R,5R,6R)-6-(3-chlorophenyl)-5-(4-chlorophenyl)-4-((R)-3-methyl-1-(N-phenylcyclopropanesulfonamido)butan-2-yl)-3-oxomorpholin-2-yl)acetic acid or 2-((2S,5R,6R)-6-(3-chlorophenyl)-5-(4-chlorophenyl)-4-((R)-3-methyl-1-(N-phenylcyclopropanesulfonamido)butan-2-yl)-3-oxomorpholin-2-yl)acetic acid] | 0.032 µM
11 | O=C(O)C[C@H]1O[C@H](c2cccc(Cl)c2)[C@@H](c2ccc(Cl)cc2)N([C@H](CN(c2ccccc2F)S(=O)(=O)C2CC2)CC(F)(F)F)C1=O (single isomer, unassigned) [Example 277] | 0.106 µM
12 | C[C@H]1CCCN1S(=O)(=O)C[C@H](C1CC1)N1C(=O)[C@@H](CC(=O)O)O[C@H](c2cccc(Cl)c2)[C@H]1c1ccc(Cl)cc1 (single isomer, unassigned) [Example 296, 2-((2R,5R,6R)-6-(3-Chlorophenyl)-5-(4-chlorophenyl)-4-((S)-1-cyclopropyl-2-(((S)-2-methylpyrrolidin-1-yl)sulfonyl)ethyl)-3-oxomorpholin-2-yl)acetic acid or 2-((2S,5R,6R)-6-(3-chlorophenyl)-5-(4-chlorophenyl)-4-((S)-1-cyclopropyl-2-(((S)-2-methylpyrrolidin-1-yl)sulfonyl)ethyl)-3-oxomorpholin-2-yl)acetic acid] | < 0.001 µM
